From doi:10.1101/2024.09.10.612317v1 (bioRxiv, 2024)

Legend:
[1] = Turbidity and optical microscopy of LLPS; assay type: physicochemical; settings: 0.1 M phosphate buffer pH 7.4, 1M NaCl
[2] = test system: BMDCs; experiment: Cytokine, chemokine and growth factor production by BMDCs; assay type: cell-based, mouse; settings: coacervates 10 μM, 24 h, multiplex assays; LPS positive control
[3] = test system: BMDCs overlaid with BB7 hybridoma cells; experiment: Antigen presentation assay with Ag85B and BB7 hybridoma; assay type: cell-based, mouse; settings: Ag85B ∼0.5 μM, BMDCs to BB7 cells 1:7

(GHGLY)4 [GL 20]
coacervates at 1M NaCl (optical micrographs) [1]: presence of coacervates
induction of cytokines, chemokines and growth factors in BMDCs [2]: immunologically inert
antigen presentation of Ag85B (IL-2) [3]: enhanced antigen presentation of Ag85B

(GHGVY)4 [GV 20]
coacervates at 1M NaCl (optical micrographs) [1]: presence of coacervates
induction of cytokines, chemokines and growth factors in BMDCs [2]: immunologically inert
antigen presentation of Ag85B (IL-2) [3]: enhanced antigen presentation of Ag85B
